Target: T1, Recombinant human LTC4 synthase (Homo sapiens, UniProt Q16873)
T1 construct: made in house; host or cells: Pichia pastoris
T1 sequence (Q16873 1-150): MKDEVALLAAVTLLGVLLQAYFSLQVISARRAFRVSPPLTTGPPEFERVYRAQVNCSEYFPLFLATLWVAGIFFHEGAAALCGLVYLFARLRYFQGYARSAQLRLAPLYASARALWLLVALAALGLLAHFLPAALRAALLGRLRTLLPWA
Test: LTC4 synthase in vitro assay (HTRF detection of LTC4)
Format: biochemical
Conditions: total concentration of title compound in the assay 10 μM; HTRF method
In short: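 Pichia-expressed recombinant human LTC4 synthase at 0.5 μg/ml total protein in PBS pH 7.4 with 5 mM GSH, preincubated 10 min at RT with inhibitor (10 μM final). LTA4 (2.5 μM final) was then added for 5 min at RT. LTC4 formed was read by HTRF.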

Row | SMILES | inhibition at 10 µM | % inh.
1 | O=C(O)Cc1cc(Oc2ccc(NC(=O)c3ccccc3)cc2)ccc1NC(=O)c1cccc(Cl)c1Cl [17:2, [5-(4-benzoylamino-phenoxy)-2-(2,3-dichloro-benzoylamino)-phenyl]-acetic acid] | 99% | 
2 | CC(C)Oc1ccc(C(=O)Nc2ccc(Oc3ccc(NC(=O)c4ccccc4)cc3)cc2CC(=O)O)cc1 [17:3, [5-(4-benzoylamino-phenoxy)-2-(4-isopropoxy-benzoyl-amino)-phenyl]-acetic acid] | 87% | 
3 | CCCCc1ccc(C(=O)Nc2ccc(Oc3ccc(NC(=O)c4ccc(Cl)cc4Cl)c(CC(=O)O)c3)cc2)cc1 [17:5, [5-[4-(4-butyl-benzoylamino)-phenoxy]-2-(2,4-dichloro-benzoylamino)-phenyl]-acetic acid] | 94% | 
4 | CCCCc1ccc(C(=O)Nc2ccc(Oc3ccc(NS(=O)(=O)c4ccc5c(c4)CNCC5)c(CC(=O)O)c3)cc2)cc1 [17:6, [5-[4-(4-butyl-benzoylamino)-phenoxy]-2-(1,2,3,4-tetrahydro-isoquinoline-7-sulfonylamino)-phenyl]-acetic acid] | 23% | 
5 | CCCCOc1ccc(S(=O)(=O)Nc2ccc(Oc3ccc(NC(=O)c4ccccc4)cc3)cc2CC(=O)O)cc1 [17:7, [5-(4-benzoylamino-phenoxy)-2-(4-butoxy-benzenesulfonyl-amino)-phenyl]-acetic acid] | 95% | 
6 | CCCCOc1ccc(S(=O)(=O)Nc2ccc(Oc3cccc(S(=O)(=O)Nc4ccc(F)c(F)c4)c3)cc2C(=O)O)cc1 [19:2, 2-(4-Butoxy-benzenesulfonylamino)-5-[3-(3,4-difluoro-phenylsufamoyl)-phenoxy]-benzoic acid] |  | 100%
7 | O=C(Nc1ccc(Oc2cccc(S(=O)(=O)Nc3ccc(F)c(F)c3)c2)cc1C(=O)O)c1ccc(Cl)cc1Cl [19:3, 2-(2,4-Dichloro-benzoylamino)-5-[3-(3,4-difluoro-phenylsufamoyl)-phenoxy]-benzoic acid] |  | 100%
8 | CCCCOc1ccc(S(=O)(=O)Nc2ccc(Oc3cccc(C(=O)NS(=O)(=O)c4cccc(Cl)c4F)c3)cc2C(=O)O)cc1 [20:1, 2-(4-Butoxy-benzenesulfonylamino)-5-[3-(3-chloro-2-fluoro-benzene-sulfonylaminocarbonyl)-phenoxy]-benzoic acid] | 99% | 
9 | CCCCOc1ccc(S(=O)(=O)Nc2ccc(Oc3cccc(C(=O)NS(=O)(=O)c4ccc(F)cc4)c3)cc2C(=O)OC(C)(C)C)cc1 [20:4, 2-(4-Butoxy-benzenesulfonylamino)-5-[3-(4-fluoro-benzenesulfonylamino-carbonyl)-phenoxy]-benzoic acid t-butyl ester] | 99% | 
10 | CCCCOc1ccc(S(=O)(=O)Nc2ccc(Oc3cccc(C(=O)NS(=O)(=O)c4ccc(F)c(F)c4)c3)cc2C(=O)O)cc1 [20:5, 2-(4-Butoxy-benzenesulfonylamino)-5-[3-(3,4-difluoro-benzenesulfonyl-aminocarbonyl)-phenoxy]-benzoic acid] | 97% | 
11 | CCCCOc1ccc(S(=O)(=O)Nc2ccc(Oc3cccc(C(=O)NS(=O)(=O)c4ccc(F)cc4)c3)cc2C(=O)O)cc1 [20:7, 2-(4-Butoxy-benzenesulfonylamino)-5-[3-(4-fluoro-benzenesulfonylamino-carbonyl)-phenoxy]-benzoic acid] | 94% | 
12 | CCCCOc1ccc(S(=O)(=O)NC(=O)c2cccc(Oc3ccc(Nc4ccc(Cl)cc4)c(C(=O)O)c3)c2)cc1 [20:9, 5-[3-(4-Butoxy-benzenesulfonyl-aminocarbonyl)-phenoxy]-2-(4-chloro-phenylamino)-benzoic acid] | 100% | 
13 | Cc1nc(C(F)(F)F)ccc1C(=O)Nc1ccc(Oc2ccc(NS(=O)(=O)c3cc(Cl)cc(Cl)c3O)c(C(=O)O)c2)cc1 [21:2, 2-(3,5-Dichloro-2-hydroxy-benzene-sulfonylamino)-5-{4-[(2-methyl-6-trifluoromethyl-pyridine-3-carbonyl)-amino]-phenoxy}-benzoic acid] | 98% | 
14 | CCCCOc1ccc(S(=O)(=O)Nc2ccc(Oc3ccc(NC(=O)c4ccccc4)cc3)cc2C(=O)O)cc1 [21:4, 5-(4-benzoylamino-phenoxy)-2-(4-butoxy-benzenesulfonylamino)-benzoic acid] | 100% | 
15 | CCCCOc1ccc(S(=O)(=O)Nc2ccc(Oc3cccc(NCc4cccc(F)c4F)c3)cc2C(=O)O)cc1 [23:1, 2-(4-Butoxybenzenesulfonylamino)-5-[3-(2,3-difluorobenzylamino)-phenoxy]benzoic acid] | 100% | 
16 | CCCCOc1ccc(S(=O)(=O)Nc2ccc(Oc3cccc(NCc4cccc(OC)c4OC)c3)cc2C(=O)O)cc1 [23:2, 2-(4-Butoxybenzenesulfonylamino)-5-[3-(2,3-dimethoxybenzylamino)-phenoxy]benzoic acid] | 99% | 
17 | CCCCOc1ccc(S(=O)(=O)Nc2ccc(Oc3cccc(NCc4cccc(Cl)c4Cl)c3)cc2C(=O)O)cc1 [23:3, 2-(4-Butoxybenzenesulfonylamino)-5-[3-(2,3-dichlorobenzylamino)-phenoxy]benzoic acid] | 98% | 
18 | CCCCOc1ccc(S(=O)(=O)Nc2ccc(Oc3cccc(NCc4cccc(Cl)c4F)c3)cc2C(=O)O)cc1 [23:4, 2-(4-Butoxybenzenesulfonylamino)-5-[3-(3-chloro-2-fluorobenzylamino)-phenoxy]benzoic acid] | 99% | 
19 | O=C(O)c1cc(Oc2cccc(NCc3cccc(Cl)c3F)c2)ccc1NS(=O)(=O)c1ccc(Cl)cc1Cl [23:5, 5-[3-(3-Chloro-2-fluorobenzylamino)-phenoxy]-2-(2,4-dichlorobenzene-sulfonylamino)benzoic acid] | 98% | 

Second part, led by results:

Row | inhibition at 10 µM | SMILES | % inh.
20 | 96% | O=C(O)Cc1cc(Oc2ccc(NC(=O)c3ccc(C(F)(F)F)cc3F)cc2)ccc1NC(=O)c1cccc(Cl)c1 [17:1, {2-(3-chloro-benzoylamino)-5-[4-(2-fluoro-4-trifluoromethyl-benzoylamino)-phenoxy]-phenyl}-acetic acid] | 
21 | 79% | CCCCc1ccc(C(=O)Nc2ccc(Oc3ccc(NC(=O)c4ccc(C(F)(F)F)cc4F)cc3)cc2CC(=O)O)cc1 [17:4, {2-(4-butyl-benzoylamino)-5-[4-(2-fluoro-4-trifluoromethyl-benzoylamino)-phenoxy]-phenyl}-acetic acid] | 
22 | 97% | CN(c1cc(Oc2ccc(NS(=O)(=O)c3cccc(Cl)c3Cl)cc2)cc(C(=O)O)c1)c1ccc(F)c(F)c1 [18:1, 3-[4-(2,3-dichloro-benzenesulfonylamino)-phenoxy]-5-[(3,4-difluoro-phenyl)-methyl-amino]-benzoic acid] | 
23 | 97% | O=C(O)c1cc(Nc2ccc(F)c(F)c2)cc(Oc2ccc(Nc3ccc(Cl)cc3)cc2)c1 [18:2, 3-[4-(4-Chloro-phenylamino)-phenoxy]-5-(3,4-difluoro-phenylamino)-benzoic acid] | 
24 | 95% | CN(c1cc(Oc2ccc(Nc3ccc(C(=O)C4CC4)cc3)cc2)cc(C(=O)O)c1)c1ccc(F)c(F)c1 [18:3, 3-[4-(4-Cyclopropanecarbonyl-phenylamino)-phenoxy]-5-[(3,4-difluoro-phenyl)-methyl-amino]-benzoic acid] | 
25 | 98% | Cc1c(Cl)cccc1S(=O)(=O)Nc1ccc(Oc2cc(Nc3ccc(F)c(F)c3)cc(C(=O)O)c2)cc1 [18:4, 3-[4-(3-Chloro-2-methyl-benzene-sulfonylamino)-phenoxy]-5-(3,4-difluoro-phenylamino)-benzoic acid] | 
26 | 100% | O=C(O)c1cc(Nc2ccc(F)c(F)c2)cc(Oc2ccc(NC(=O)c3cccc(Cl)c3)cc2)c1 [18:5, 3-[4-(3-Chloro-benzoylamino)-phenoxy]-5-(3,4-difluoro-phenylamino)-benzoic acid] | 
27 | 96% | CN(c1cc(Oc2ccc(NC(=O)c3cccc(Cl)c3)cc2)cc(C(=O)O)c1)c1ccc(F)c(F)c1 [18:6, 3-[4-(3-Chloro-benzoylamino)-phenoxy]-5-[(3,4-difluoro-phenyl)-methyl-amino]-benzoic acid] | 
28 | 96% | O=C(NS(=O)(=O)c1ccc(F)c(F)c1)c1cccc(Oc2ccc(Nc3ccc(Cl)cc3)c(C(=O)O)c2)c1 [20:2, 2-(4-Chloro-phenylamino)-5-[3-(3,4-difluoro-benzenesulfonylamino-carbonyl)-phenoxy]-benzoic acid] | 
29 | 97% | O=C(NS(=O)(=O)c1cccc(Cl)c1F)c1cccc(Oc2ccc(Nc3ccc(Cl)cc3)c(C(=O)O)c2)c1 [20:3, 5-[3-(3-Chloro-2-fluoro-benzene-sulfonylaminocarbonyl)-phenoxy]-2-(4-chloro-phenylamino)-benzoic acid] | 
30 | 100% | CC(C)(C)OC(=O)c1cc(Oc2cccc(C(=O)NS(=O)(=O)c3ccc(F)c(F)c3)c2)ccc1Nc1ccc(Cl)cc1 [20:6, 2-(4-Chloro-phenylamino)-5-[3-(3,4-difluoro-benzenesulfonylamino-carbonyl)-phenoxy]-benzoic acid t-butyl ester] | 
31 | 96% | O=C(NS(=O)(=O)c1ccc(F)cc1)c1cccc(Oc2ccc(Nc3ccc(Cl)cc3)c(C(=O)O)c2)c1 [20:8, 5-[3-(4-Fluorobenzenesulfonyl-aminocarbonyl)-phenoxy]-2-(4-chloro-phenylamino)-benzoic acid] | 
32 | 100% | Cc1nc(C(F)(F)F)ccc1C(=O)Nc1ccc(Oc2ccc(NS(=O)(=O)c3ccc(F)c(Cl)c3)c(C(=O)O)c2)cc1 [21:1, 2-(3-Chloro-4-fluoro-benzenesulfonylamino)-5-{4-[(2-methyl-6-trifluoromethyl-pyridine-3-carbonyl)-amino]-phenoxy}-benzoic acid] | 
33 | 99% | COc1ccc(S(=O)(=O)Nc2ccc(Oc3ccc(N(C)C(=O)c4ccc(C(C)(C)C)cc4)cc3)cc2C(=O)O)cc1 [21:3, 5-{4-[(4-t-Butyl-benzoyl)-methyl-amino]-phenoxy}-2-(4-methoxy-benzenesulfonylamino)-benzoic acid] | 

From patent US20110071197A1, “BIS-ARYL COMPOUNDS FOR USE AS MEDICAMENTS” (priority 2008, published 2011)
